“And” between values parts separate entries of the source, which are not always exact repeats. Equal values may be shown once.
Columns and labels:
[1] = tested on: human neutrophils; conditions: Simpkins et al. 1985; cited from earlier work
[2] = Battion et al. 1968; cited from earlier work
[3] = Nitric oxide uptake/content of soybean oil emulsion by mass spectrometry
[4] = 1 atm; from The Engineering Toolbox; cited from earlier work
[5] = anesthetic; cited from earlier work
[6] = published value; cited from earlier work

C=CCN1CC[C@]23c4c5ccc(O)c4O[C@H]2C(=O)CC[C@]3(O)[C@H]1C5 [(+) naloxone]
concentration range that produces anti-inflammatory effect [1]: 10^−5-10^−4 M

O=O [Oxygen]
solubility in lipid relative to water [2]: 4.41 times

O [Water]
NO Content, single sample ([3]; 100 ppm nitric oxide in helium headspace, 60 min equilibration): 2.29 mol/L and 1.52 mol/L and 1.63 mol/L and 1.72 mol/L and 1.69 mol/L | NO Content, Mean ([3]; 100 ppm nitric oxide in helium headspace, 60 min equilibration, 5 samples): 1.77 mol/L | NO content ([3]; mass spectrometry, Example 7): 2.12×10^−3±0.17 moles/L | Oxygen Content at 25° C. and Sea level Pressure [4]: 8.3 mg/L

[Xe] [Xenon]
minimum alveolar concentration (MAC) [5]: 71%

hemoglobin
oxygen release time [6]: 17.5 ms

— patent US10716756B2, “Compositions and methods for reducing reperfusion injury” (VIVACELLE BIO, INC., priority 2016, dated 2020)
